Four molecules from ChEMBL document CHEMBL2057136, “Discovery of MEK/PI3K dual inhibitor via structure-based virtual screening” (Bioorg Med Chem Lett, 2012) can be followed below.

The structures appear in SMILES notation.

T1 sequence (Q02750 whole entry): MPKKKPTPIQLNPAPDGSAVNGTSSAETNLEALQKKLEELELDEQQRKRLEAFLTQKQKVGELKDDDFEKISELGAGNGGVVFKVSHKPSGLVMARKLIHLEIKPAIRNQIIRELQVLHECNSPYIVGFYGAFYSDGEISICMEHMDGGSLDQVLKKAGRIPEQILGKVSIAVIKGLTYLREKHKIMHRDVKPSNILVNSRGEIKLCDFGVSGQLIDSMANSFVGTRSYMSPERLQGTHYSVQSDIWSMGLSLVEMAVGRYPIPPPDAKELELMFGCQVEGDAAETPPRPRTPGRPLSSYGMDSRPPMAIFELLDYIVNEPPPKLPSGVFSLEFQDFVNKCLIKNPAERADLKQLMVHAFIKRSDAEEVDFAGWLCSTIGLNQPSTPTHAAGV

One assay concerns the target T1, Dual specificity mitogen-activated protein kinase kinase 1 (Homo sapiens, UniProt Q02750). Briefly: Inhibition of MEK1 using [gamma32P]ATP by radiometric kinase assay.
With `N=C1/C(=C\c2coc3ccccc3c2=O)C(=O)N=C2SC(c3ccc(O)cc3)=NN12`, the midpoint of inhibition, the IC50, lay at 8.5 µM.
The same measure, in the same setting: for `OCCNc1ncnc2oc(-c3ccccc3)c(-c3ccccc3)c12` the value was 12.3 µM; for `N=C1/C(=C\c2ccc(O)c(O)c2)C(=O)N=C2SC(c3ccc(O)cc3)=NN12`, 2.2 µM.
Still for that read-out and setting: to `O=C(O)c1cccc(N2C(=O)/C(=C\c3cnc4ccccc4n3)SC2=S)c1` belongs 23.1 µM.

The target in another assay is Phosphatidylinositol 4,5-bisphosphate 3-kinase catalytic subunit alpha isoform (Homo sapiens, UniProt P42336). The assay is described as follows: Inhibition of PI3Kalpha using [gamma32P]ATP by radiometric kinase assay.
Phosphatidylinositol 4,5-bisphosphate 3-kinase catalytic subunit alpha isoform, sequence (P42336 whole entry, canonical isoform): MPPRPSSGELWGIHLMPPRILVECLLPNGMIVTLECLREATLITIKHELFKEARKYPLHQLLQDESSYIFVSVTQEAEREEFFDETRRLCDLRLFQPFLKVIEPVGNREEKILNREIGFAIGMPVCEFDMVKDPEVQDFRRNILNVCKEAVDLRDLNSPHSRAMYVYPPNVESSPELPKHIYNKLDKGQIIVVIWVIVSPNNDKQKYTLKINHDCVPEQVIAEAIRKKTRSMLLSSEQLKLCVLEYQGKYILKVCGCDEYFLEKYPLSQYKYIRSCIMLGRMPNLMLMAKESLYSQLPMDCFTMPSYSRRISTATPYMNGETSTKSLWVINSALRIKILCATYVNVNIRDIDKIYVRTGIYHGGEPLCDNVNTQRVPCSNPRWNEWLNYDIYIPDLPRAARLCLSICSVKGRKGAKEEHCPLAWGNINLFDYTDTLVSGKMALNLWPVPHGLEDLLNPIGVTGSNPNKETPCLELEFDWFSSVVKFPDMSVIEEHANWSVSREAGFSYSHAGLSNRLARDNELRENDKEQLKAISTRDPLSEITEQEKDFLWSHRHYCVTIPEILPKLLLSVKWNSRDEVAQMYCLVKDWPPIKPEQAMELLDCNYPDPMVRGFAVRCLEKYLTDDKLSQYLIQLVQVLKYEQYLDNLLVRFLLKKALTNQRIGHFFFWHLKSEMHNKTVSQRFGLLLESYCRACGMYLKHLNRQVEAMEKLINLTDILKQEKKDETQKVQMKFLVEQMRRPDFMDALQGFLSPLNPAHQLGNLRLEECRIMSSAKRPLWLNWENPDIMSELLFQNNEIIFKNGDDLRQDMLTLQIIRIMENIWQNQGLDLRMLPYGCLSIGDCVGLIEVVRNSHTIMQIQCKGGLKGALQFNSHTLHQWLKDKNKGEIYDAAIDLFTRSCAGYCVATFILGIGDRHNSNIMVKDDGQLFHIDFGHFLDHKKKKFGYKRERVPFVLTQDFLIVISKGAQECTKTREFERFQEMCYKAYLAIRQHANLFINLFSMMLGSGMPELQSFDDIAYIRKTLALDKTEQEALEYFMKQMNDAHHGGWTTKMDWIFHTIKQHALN
As to `N=C1/C(=C\c2coc3ccccc3c2=O)C(=O)N=C2SC(c3ccc(O)cc3)=NN12`, the midpoint of inhibition, the IC50, lay at 10.2 µM.
The molecule `OCCNc1ncnc2oc(-c3ccccc3)c(-c3ccccc3)c12` yielded a half-inhibitory concentration (IC50) of over 30 µM.
In turn, `N=C1/C(=C\c2ccc(O)c(O)c2)C(=O)N=C2SC(c3ccc(O)cc3)=NN12` showed an IC50 of 0.3 µM.
Same read-out and setting: to `O=C(O)c1cccc(N2C(=O)/C(=C\c3cnc4ccccc4n3)SC2=S)c1` belongs over 30 µM.

For a further assay, the target named is Dual specificity mitogen-activated protein kinase kinase 2 (Homo sapiens, UniProt P36507). The assay is described as follows: Inhibition of MEK2 using [gamma32P]ATP by radiometric kinase assay.
Dual specificity mitogen-activated protein kinase kinase 2, sequence (P36507 whole entry): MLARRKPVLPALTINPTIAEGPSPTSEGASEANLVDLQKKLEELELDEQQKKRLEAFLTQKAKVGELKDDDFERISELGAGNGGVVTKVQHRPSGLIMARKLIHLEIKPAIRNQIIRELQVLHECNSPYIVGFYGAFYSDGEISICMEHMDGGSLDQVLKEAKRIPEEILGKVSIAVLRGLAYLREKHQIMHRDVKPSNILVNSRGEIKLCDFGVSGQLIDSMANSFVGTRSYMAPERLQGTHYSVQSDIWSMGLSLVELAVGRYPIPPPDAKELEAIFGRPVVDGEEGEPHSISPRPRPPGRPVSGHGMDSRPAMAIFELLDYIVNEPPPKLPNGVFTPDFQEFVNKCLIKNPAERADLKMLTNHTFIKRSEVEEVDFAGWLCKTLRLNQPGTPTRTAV
Regarding `N=C1/C(=C\c2ccc(O)c(O)c2)C(=O)N=C2SC(c3ccc(O)cc3)=NN12`, the half-inhibitory concentration (IC50) was found to be 1.3 µM.

The target in a further assay is T1, Dual specificity mitogen-activated protein kinase kinase 1. The assay is described as follows: Inhibition of MEK1 at 10 uM using [gamma32P]ATP by radiometric kinase assay.
Molecule `N=C1/C(=C\c2coc3ccccc3c2=O)C(=O)N=C2SC(c3ccc(O)cc3)=NN12` had an inhibition of over 30%.
The same measure, in the same setting: to `OCCNc1ncnc2oc(-c3ccccc3)c(-c3ccccc3)c12` belongs over 30%; to `N=C1/C(=C\c2ccc(O)c(O)c2)C(=O)N=C2SC(c3ccc(O)cc3)=NN12`, over 30%.
`O=C(O)c1cccc(N2C(=O)/C(=C\c3cnc4ccccc4n3)SC2=S)c1`: the inhibition is over 30%.
